Legend:
[1] = target: T1, Ba/F3 BCR-FGFR2 (Homo sapiens, UniProt P21802); assay: Ba/F3 cell viability assay (CellTiter-Glo 2.0); type: cell-based; conditions: Ba/F3 cell data, BCR-FGFR2 fusion, 48 hours
T1 construct: BCR (fusion partner); host or cells: Ba/F3; the other entry of the earlier key: BCR (P11274, Breakpoint cluster region protein)

[2] = target: T2, FGFR1 (Homo sapiens, UniProt P11362); assay: Kinase binding assay (Kd), kinase-tagged T7 phage, affinity beads, qPCR; conditions: in vitro binding assay, 11-point 3-fold dilution series
T2 construct: made in house; host or cells: E. coli (BL21-derived) infected with T7 phage
Method: (§1) Kinase-tagged T7 phage strains were prepared in an E. coli host derived from the BL21 strain. E. coli were grown to log-phase and infected with T7 phage and incubated with shaking at 32° C. until lysis. The lysates were centrifuged and filtered to remove cell debris. Streptavidin-coated magnetic beads were treated with biotinylated small molecule ligands for 30 minutes at room temperature to generate affinity resins for kinase assays. The liganded beads were blocked with excess biotin and washed with blocking buffer SeaBlock (Pierce), 1% BSA, 0.05% Tween 20, 1 mM DTT to remove unbound ligand and to reduce non-specific binding. Binding reactions were assembled by combining kinases, liganded affinity beads, and test compounds in 1× binding buffer (20% SeaBlock, 0.17×PBS, 0.05% Tween 20, 6 mM DTT).
(§2) Test compounds were prepared as 111× stocks in 100% DMSO. Kds were determined using an 11-point 3-fold compound dilution series with three DMSO control points. All compounds for Kd measurements are distributed by acoustic transfer (non-contact dispensing) in 100% DMSO. The compounds were then diluted directly into the assays such that the final concentration of DMSO was 0.9%. All reactions performed in polypropylene 384-well plate. Each was a final volume of 0.02 ml. The assay plates were incubated at room temperature with shaking for 1 hour and the affinity beads were washed with wash buffer (1×PBS, 0.05% Tween 20). The beads were then re-suspended in elution buffer (1×PBS, 0.05% Tween 20, 0.5 μM non-biotinylated affinity ligand) and incubated at room temperature with shaking for 30 minutes. The kinase concentration in the eluates was measured by qPCR.
(§3) Binding constants were calculated with a standard dose-response curve using the Hill equation: […]
(§4) The Hill Slope was set to −1. Curves were fitted using a non-linear least square fit with the Levenberg-Marquardt algorithm.

[3] = target: T3, FGFR3 (Homo sapiens, UniProt P22607); assay: as above; conditions: in vitro binding assay, 11-point 3-fold dilution series
T3 construct: made in house; host or cells: E. coli (BL21-derived) infected with T7 phage
Method: as §1, §2, §3, §4

[4] = target: T4, FGFR2 (Homo sapiens, UniProt P21802); assay: as above; conditions: in vitro binding assay, 11-point 3-fold dilution series
T4 construct: made in house; host or cells: E. coli (BL21-derived) infected with T7 phage
Method: as §1, §2, §3, §4

[5] = target: T5, FGFR4 (Homo sapiens, UniProt P22455); assay: as above; conditions: in vitro binding assay, 11-point 3-fold dilution series
T5 construct: made in house; host or cells: E. coli (BL21-derived) infected with T7 phage
Method: as §1, §2, §3, §4

[6] = target: T6, FGFR3 (V555M) (Homo sapiens, UniProt P22607, V555M); assay: as above; conditions: in vitro binding assay, 11-point 3-fold dilution series
T6 construct: made in house; host or cells: E. coli (BL21-derived) infected with T7 phage
Method: as §1, §2, §3, §4

[7] = target: T7, Ba/F3 FGFR3-BAIAP2L1 (Homo sapiens, UniProt P22607); assay: Ba/F3 cell viability assay (CellTiter-Glo 2.0); type: cell-based; conditions: Ba/F3 cell data, FGFR3-BAIAP2L1 fusion, 48 hours
T7 construct: BAIAP2L1 (fusion partner, Q9UHR4 if human); host or cells: Ba/F3; the other entry of the earlier key: BAIAP2L1 (Q9UHR4, BAR/IMD domain-containing adapter protein 2-like 1)

[8] = system: KG-1; assay: Cancer cell line cell viability assay (CellTiter-Glo 2.0); type: cell-based; conditions: Homo sapiens; KG-1 (FGFR1-fusion) cell viability, 72 hours
Description: (§5) Experimental Purpose: To detect the change of intracellular ATP by Cell Titer-Glo® and to evaluate the inhibitory effect of the compounds on cancer cell lines by determining the in vitro IC50 value of the compounds.
(§6) Cell Titer-Glo® 2.0 Luminescent cell viability assay reagent was purchased from Promega (Madison, WI). RT112/84 and KG-1 cell lines were purchased from American Type Culture Collection (Manassas, VA). UM-UC-14 cell line was purchased from Sigma (St. Louis, MO). RT112/84, UM-UC-14, and KG-1 cells were cultured in RPMI1640 media supplemented with 10% fetal bovine serum. Cultures were maintained at 37° C. in a humidified atmosphere of 5% CO2 and 95% air.
(§7) Cell Viability Assay Procedure: Cells were plated in 96-well clear bottom/white plates (Corning #3903) at 10,000 cells/well in 100 μl of media, incubated overnight. The next day, test compound DMSO stock solutions were made at 10 mM and 2 μM final concentration.
(§8) Compounds were then added to cells in a 9-dose, […] dilution series starting at 30 μM with an HP 300e Digital Dispenser (each dose was applied in triplicate). DMSO was backfilled to each well up to 301 nL total volume of test compound+DMSO, and a total of 301 nL DMSO was added to a control/no test compound well in triplicate. The cells in cell culture plates were incubated with the compounds at 37° C. and 5% CO2 for 72 hours. Then 50 μl of Cell Titer Glo 2.0 reagent was added to each well of the cell culture plates. The contents were covered from light and mixed on an orbital shaker at room temperature for 10 min.
(§9) Luminescence was recorded by a Synergy H1 Microplate Reader (Biotek, Winooski, VT). Cells were assessed as a percentage of DMSO only treated control cells. Curves were plotted and IC50 values were calculated using the GraphPad Prism 8 program based on a sigmoidal dose-response equation (4 parameter).

[9] = system: RT112/84; assay: as above; type: cell-based; conditions: Homo sapiens; RT112/84 (FGFR3-fusion) cell viability, 72 hours
Description: as §5, §6, §7, §8, §9

[10] = system: KatoIIII; assay: as above; type: cell-based; conditions: 72 hours
[11] = target: T8, Ba/F3 ETV5-FGFR4 (Homo sapiens, UniProt P22455); assay: Ba/F3 cell viability assay (CellTiter-Glo 2.0); type: cell-based; conditions: Ba/F3 cell data, ETV5-FGFR4 fusion, 48 hours
T8 construct: host or cells: Ba/F3; the other entry of the earlier key: ETV5 (P41161, ETS translocation variant 5)
Description: Experimental Purpose: Recombinant kinase fusions are transduced into parental Ba/F3, which becomes dependent upon this constitutive kinase activity for IL3-independent survival. Inhibition of kinase activity leads to cell death, which is monitored using CellTiter-Glo® 2.0 (Promega) which measures intracellular ATP concentration that in turn serves as a marker for viability. BCR-FGFR1 Ba/F3, BCR-FGFR2 and FGFR3-BAIAP2L1 Ba/F3 were obtained from Advanced Cellular Dynamics (Seattle, WA). ETV6-FGFR4 was obtained from Kyinno (Waltham, MA).
Cell Viability Assay Procedure: Cell Titer-Glo® 2.0 Luminescent cell viability assay reagent was purchased from Promega (Madison, WI). Ba/F3 cell lines were cultured in RPMI1640 media supplemented with 10% fetal bovine serum. Cultures were maintained at 37° C. in a humidified atmosphere of 5% CO2 and 95% air.
Cells were plated in 96-well clear bottom/white plates (Corning #3903) at 10,000 cells/well in 100 μl of media, incubated overnight. The next day, test compound DMSO stock solutions were made at 10 mM and 2 μM final concentration. Compounds were then added to cells in a 9-dose, 10-fold dilution series starting at 30 μM with an HP 300e Digital Dispenser (each dose was applied in triplicate). DMSO was backfilled to each well up to 301 nL total volume of test compound+DMSO, and a total of 301 nL DMSO was added to a control/no test compound well in triplicate. The cells in cell culture plates were incubated with the compounds at 37° C. and 5% CO2 for 48 hours. Then 50 μl of Cell Titer Glo 2.0 reagent was added to each well of the cell culture plates. The contents were covered from light and mixed on an orbital shaker at room temperature for 10 min. Luminescence was recorded by a Synergy H1 Microplate Reader (Biotek, Winooski, VT). Cells were assessed as a percentage of DMSO only treated control cells. Curves were plotted and IC50 values were calculated using the GraphPad Prism 8 program based on a sigmoidal dose-response equation (4 parameter).

[12] = target: T9, Ba/F3 BCR-FGFR1 (Homo sapiens, UniProt P11362); assay: Ba/F3 cell viability assay (CellTiter-Glo 2.0); type: cell-based; conditions: Ba/F3 cell data, BCR-FGFR1 fusion, 48 hours
T9 construct: BCR (fusion partner); host or cells: Ba/F3; the other entry of the earlier key: BCR (P11274, Breakpoint cluster region protein)
T9 sequence (P11362 478-767 limits assumed): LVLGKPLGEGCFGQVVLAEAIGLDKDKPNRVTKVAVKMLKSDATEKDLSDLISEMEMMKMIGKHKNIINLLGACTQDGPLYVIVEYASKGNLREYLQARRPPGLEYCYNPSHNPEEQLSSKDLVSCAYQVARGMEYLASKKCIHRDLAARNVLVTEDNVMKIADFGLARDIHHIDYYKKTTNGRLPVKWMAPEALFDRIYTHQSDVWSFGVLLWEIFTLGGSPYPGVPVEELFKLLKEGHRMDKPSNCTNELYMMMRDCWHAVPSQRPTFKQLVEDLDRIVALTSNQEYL

T1 sequence (P21802 481-770 limits assumed): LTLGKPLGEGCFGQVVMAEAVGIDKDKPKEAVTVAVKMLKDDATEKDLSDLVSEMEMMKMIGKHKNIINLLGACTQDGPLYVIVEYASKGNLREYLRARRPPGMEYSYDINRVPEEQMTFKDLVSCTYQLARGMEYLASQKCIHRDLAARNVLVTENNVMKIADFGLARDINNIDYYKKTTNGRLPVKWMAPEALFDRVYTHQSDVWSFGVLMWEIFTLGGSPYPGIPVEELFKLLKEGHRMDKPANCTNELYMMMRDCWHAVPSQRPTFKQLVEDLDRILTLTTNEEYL
T6 sequence (P22607 23-806 V555M): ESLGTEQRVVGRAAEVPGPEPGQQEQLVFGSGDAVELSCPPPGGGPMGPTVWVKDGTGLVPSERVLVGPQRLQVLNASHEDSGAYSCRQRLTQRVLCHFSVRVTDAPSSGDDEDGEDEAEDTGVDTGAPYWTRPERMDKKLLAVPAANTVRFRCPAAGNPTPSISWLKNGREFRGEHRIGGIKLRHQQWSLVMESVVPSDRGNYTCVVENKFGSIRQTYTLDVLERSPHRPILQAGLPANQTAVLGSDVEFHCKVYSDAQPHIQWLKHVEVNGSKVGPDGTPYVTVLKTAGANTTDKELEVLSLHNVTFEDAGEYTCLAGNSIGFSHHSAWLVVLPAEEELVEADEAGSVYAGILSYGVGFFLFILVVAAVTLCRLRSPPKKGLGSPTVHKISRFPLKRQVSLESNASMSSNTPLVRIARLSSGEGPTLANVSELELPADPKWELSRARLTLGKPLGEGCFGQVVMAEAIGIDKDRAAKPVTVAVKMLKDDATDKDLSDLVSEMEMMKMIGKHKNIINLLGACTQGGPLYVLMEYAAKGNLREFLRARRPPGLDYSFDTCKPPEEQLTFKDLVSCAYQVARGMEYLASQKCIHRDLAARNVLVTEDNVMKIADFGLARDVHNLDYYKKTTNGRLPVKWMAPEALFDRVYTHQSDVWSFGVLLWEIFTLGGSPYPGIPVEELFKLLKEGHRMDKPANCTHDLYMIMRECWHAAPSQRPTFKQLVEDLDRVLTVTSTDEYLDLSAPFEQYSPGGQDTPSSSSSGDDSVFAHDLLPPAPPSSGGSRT
T5 sequence (P22455 22-802): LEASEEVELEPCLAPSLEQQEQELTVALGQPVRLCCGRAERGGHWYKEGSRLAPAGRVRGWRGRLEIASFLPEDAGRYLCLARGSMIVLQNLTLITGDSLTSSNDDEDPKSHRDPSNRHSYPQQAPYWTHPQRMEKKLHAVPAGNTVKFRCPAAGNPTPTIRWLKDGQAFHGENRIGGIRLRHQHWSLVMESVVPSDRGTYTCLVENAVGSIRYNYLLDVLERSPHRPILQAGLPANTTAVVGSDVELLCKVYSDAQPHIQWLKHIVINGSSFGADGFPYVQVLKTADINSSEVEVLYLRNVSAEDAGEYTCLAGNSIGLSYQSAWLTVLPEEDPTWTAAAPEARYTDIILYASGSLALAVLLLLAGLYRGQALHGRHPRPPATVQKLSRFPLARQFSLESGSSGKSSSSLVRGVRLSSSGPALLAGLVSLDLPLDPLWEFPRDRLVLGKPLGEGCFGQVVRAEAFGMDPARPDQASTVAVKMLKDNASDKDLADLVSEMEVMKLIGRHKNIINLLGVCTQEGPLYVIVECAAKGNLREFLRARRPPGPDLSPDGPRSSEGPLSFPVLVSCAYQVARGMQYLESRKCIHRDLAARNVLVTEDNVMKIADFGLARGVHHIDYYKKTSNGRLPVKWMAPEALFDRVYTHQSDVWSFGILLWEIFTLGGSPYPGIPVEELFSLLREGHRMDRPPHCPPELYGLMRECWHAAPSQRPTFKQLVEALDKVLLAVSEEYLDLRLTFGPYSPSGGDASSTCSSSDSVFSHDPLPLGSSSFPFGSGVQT
T4 sequence (P21802 22-821): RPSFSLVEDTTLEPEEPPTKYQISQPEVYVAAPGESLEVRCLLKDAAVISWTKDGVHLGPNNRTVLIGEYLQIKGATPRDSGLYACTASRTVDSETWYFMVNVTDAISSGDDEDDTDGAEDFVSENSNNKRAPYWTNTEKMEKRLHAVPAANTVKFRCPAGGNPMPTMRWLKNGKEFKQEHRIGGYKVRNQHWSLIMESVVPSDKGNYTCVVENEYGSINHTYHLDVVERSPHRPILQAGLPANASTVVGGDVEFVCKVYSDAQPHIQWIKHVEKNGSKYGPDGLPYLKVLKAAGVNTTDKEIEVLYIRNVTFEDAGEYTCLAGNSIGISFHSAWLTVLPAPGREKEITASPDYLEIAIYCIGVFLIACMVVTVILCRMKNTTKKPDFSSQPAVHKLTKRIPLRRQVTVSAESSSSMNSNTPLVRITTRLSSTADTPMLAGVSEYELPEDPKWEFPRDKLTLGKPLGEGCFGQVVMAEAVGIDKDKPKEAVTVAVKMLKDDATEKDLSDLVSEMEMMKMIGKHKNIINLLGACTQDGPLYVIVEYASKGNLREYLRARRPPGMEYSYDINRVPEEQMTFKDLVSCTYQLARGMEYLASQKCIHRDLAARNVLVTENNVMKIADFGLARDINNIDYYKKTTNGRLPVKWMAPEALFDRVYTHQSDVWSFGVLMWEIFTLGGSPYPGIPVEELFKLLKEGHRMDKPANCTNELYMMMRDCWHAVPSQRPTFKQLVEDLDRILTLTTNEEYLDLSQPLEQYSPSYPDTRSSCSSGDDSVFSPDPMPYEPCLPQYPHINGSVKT
T7 sequence (P22607 397-758 limits assumed): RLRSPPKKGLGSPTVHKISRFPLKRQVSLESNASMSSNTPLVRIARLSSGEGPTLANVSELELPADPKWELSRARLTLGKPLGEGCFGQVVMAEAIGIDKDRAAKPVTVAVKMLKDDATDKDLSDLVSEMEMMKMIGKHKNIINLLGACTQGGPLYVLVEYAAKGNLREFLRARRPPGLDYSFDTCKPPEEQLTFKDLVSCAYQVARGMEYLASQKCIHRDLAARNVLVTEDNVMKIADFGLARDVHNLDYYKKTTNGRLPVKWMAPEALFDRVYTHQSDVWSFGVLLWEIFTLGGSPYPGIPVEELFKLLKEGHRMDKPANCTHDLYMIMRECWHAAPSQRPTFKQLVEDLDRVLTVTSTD
T2 sequence (P11362 22-822): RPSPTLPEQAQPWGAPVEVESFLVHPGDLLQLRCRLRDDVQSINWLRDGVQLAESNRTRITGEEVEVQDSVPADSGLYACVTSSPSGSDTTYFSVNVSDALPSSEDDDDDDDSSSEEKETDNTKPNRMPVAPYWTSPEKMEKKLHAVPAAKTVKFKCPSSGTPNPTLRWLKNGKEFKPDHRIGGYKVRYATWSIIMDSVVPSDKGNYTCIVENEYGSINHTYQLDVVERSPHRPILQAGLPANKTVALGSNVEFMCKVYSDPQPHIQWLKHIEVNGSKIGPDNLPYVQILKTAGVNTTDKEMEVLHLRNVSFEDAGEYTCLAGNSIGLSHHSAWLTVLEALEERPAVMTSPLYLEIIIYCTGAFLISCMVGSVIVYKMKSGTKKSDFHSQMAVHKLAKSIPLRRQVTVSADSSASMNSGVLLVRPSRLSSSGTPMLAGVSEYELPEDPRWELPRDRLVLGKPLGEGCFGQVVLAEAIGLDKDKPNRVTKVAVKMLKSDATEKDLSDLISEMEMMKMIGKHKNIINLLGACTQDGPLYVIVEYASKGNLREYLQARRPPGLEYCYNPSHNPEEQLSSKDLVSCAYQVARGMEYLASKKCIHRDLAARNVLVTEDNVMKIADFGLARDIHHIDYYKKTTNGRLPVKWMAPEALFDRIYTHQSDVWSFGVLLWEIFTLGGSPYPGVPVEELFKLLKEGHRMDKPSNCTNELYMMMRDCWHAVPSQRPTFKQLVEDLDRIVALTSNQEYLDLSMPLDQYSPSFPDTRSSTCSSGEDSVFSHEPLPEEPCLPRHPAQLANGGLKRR
T3 sequence (P22607 23-806): as the sequence (P22607 23-806 V555M) above, with M533V counted along it
T8 sequence (P22455 467-755 limits assumed): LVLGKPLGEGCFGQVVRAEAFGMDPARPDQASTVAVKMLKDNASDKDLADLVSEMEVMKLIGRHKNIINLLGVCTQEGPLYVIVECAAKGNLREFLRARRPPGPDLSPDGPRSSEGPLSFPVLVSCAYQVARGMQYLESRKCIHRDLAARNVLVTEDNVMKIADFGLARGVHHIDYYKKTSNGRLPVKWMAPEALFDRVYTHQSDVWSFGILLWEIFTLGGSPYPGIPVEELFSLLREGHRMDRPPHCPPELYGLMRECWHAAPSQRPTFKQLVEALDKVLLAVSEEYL

Structure (SMILES)	Kd [1] [nM]	Kd [2] [nM]	Kd [3] [nM]	Kd [4] [nM]	Kd [5] [nM]	Kd [6] [nM]	Kd [7] [nM]	IC50 [8] [nM]	IC50 [9] [nM]	IC50 [10] [nM]	Kd [11] [nM]	Kd [12] [nM]
C=CC(=O)N1CC(C(=O)N2CCC(n3nnc(-c4cc(O[C@H](CO)c5ccccn5)c5c(C#N)cnn5c4)c3C)CC2)C1 (single isomer, unassigned) [Example 18]	≥ 1000	0.1 to 100	0.1 to 100	0.1 to 100	0.1 to 100	0.1 to 100	250 to 1000	≥ 1000	≥ 1000	≥ 1000	≥ 1000	≥ 1000
C=CC(=O)N1CC(F)(C(=O)N2CCC(n3nnc(-c4cc(O[C@H](CO)c5ccccn5)c5c(C#N)cnn5c4)c3C)CC2)C1 (single isomer, unassigned) [Example 20]	≥ 1000	0.1 to 100	0.1 to 100	0.1 to 100	0.1 to 100	0.1 to 100	0.1 to 100	250 to 1000	100 to 250	≥ 1000	≥ 1000	≥ 1000
C=CC(=O)N1CCC(n2ncc(-c3cc(O[C@H](CO)c4ccc(F)cn4)c4c(C#N)cnn4c3)c2C)CC1 [Example 1, 4-[(1S)-1-(5-fluoro-2-pyridyl)-2-hydroxy-ethoxy]-6-[5-methyl-1-(1-prop-2-enoyl-4-piperidyl)pyrazol-4-yl]pyrazolo[1,5-a]pyridine-3-carbonitrile]	100 to 250	100 to 250	0.1 to 100	0.1 to 100	100 to 250	0.1 to 100	0.1 to 100	≥ 1000	100 to 250	100 to 250	250 to 1000	250 to 1000
C=CC(=O)N1CCC2(CC1)CC(n1nnc(-c3cc(O[C@H](C)c4ccccn4)c4c(C#N)cnn4c3)c1C)C2 [Example 3, (R)-6-(1-(7-acryloyl-7-azaspiro[3.5]nonan-2-yl)-5-methyl-1H-1,2,3-triazol-4-yl)-4-(1-(pyridin-2-yl)ethoxy)pyrazolo[1,5-a]pyridine-3-carbonitrile]	0.1 to 100	0.1 to 100	0.1 to 100				0.1 to 100	0.1 to 100	0.1 to 100	0.1 to 100	100 to 250	0.1 to 100
COC1(C(=O)N2CCC(n3nnc(-c4cc(OC(CO)c5ccccn5)c5c(C#N)cnn5c4)c3C)CC2)CN(C(=O)/C=C/CN(C)C)C1 (stereo not drawn) [Example 23, (E)-6-(1-(1-(1-(4-(dimethylamino)but-2-enoyl)-3-methoxyazetidine-3-carbonyl)piperidin-4-yl)-5-methyl-1H-1,2,3-triazol-4-yl)-4-(2-hydroxy-1-(pyridin-2-yl)ethoxy)pyrazolo[1,5-a]pyridine-3-carbonitrile]	≥ 1000	0.1 to 100	0.1 to 100	0.1 to 100	0.1 to 100	0.1 to 100	250 to 1000				≥ 1000	≥ 1000
CCC(=O)N1CCC2(CC1)CC(n1cc(-c3cc(O[C@H](CO)c4ccc(F)cn4)c4c(C#N)cnn4c3)cn1)C2 [Example 28, (S)-4-(1-(5-fluoropyridin-2-yl)-2-hydroxyethoxy)-6-(1-(7-propionyl-7-azaspiro[3.5]nonan-2-yl)-1H-pyrazol-4-yl)pyrazolo[1,5-a]pyridine-3-carbonitrile]	0.1 to 100	0.1 to 100	0.1 to 100	0.1 to 100	0.1 to 100	0.1 to 100	0.1 to 100				100 to 250	100 to 250

Source: US20260209223A1, “FGFR3 INHIBITOR COMPOUNDS” (TYRA BIOSCIENCES, INC., priority 2022, published 2026)
